The numbers were not newly measured in US20230338587A1, “METHOD OF TREATING PSMA-EXPRESSING CANCERS” (ADVANCED ACCELERATOR APPLICATIONS INTERNATIONAL SA, priority 2020, published 2023), which cites them from elsewhere.

On to “XOMA 089: fully human monoclonal antibody that specifically binds and neutralizes TGF-beta 1 and 2 ligands”, for which the “cross-reactivity with rodent TGF-β” value in the data set with rodent TGF-β was “cross-reacts”. The “cross-reactivity with cynomolgus monkey TGF-β” value with cynomolgus monkey TGF-β is “cross-reacts”.
